Assay results published in patent US5705649A, “Protein staining compositions and methods” (Promega Corporation, priority 1995, dated 1998).

What was measured:
[1] = Spectral analyses of Coomassie Blue R and Promega Green 1, 2, 3; type: physicochemical
Procedure: The three solutions of Promega Green 1, 2, and 3, from examples 1, 2 and 3 respectively, were diluted approximately 500 fold into a 1:1 solution of methanol:water. The spectra of the resulting solutions and of a 12 μg/ml solution of Coomassie Blue R (in 1:1 methanol:water) were recorded from 700 to 340 nm versus 1:1 methanol:water. […] All of the derivatives gave essentially identical spectra; however, the maximal absorbance of the diluted Promega Green i was about twice that seen for the other derivatives. The derivatives had two peak absorptions in the region of the spectrum scanned, a major peak at around 630 nm and a second peak at around 440 nm. The following absorbances were recorded at the peaks near 630 nm for the three Promega Green dye solutions (diluted 1:500 in 1:1 methanol:water): […]

[2] = system: bovine serum albumin (BSA); assay: Staining in polyacrylamide gels not containing SDS; conditions: 50 mM Tris-HCl pH 8.0
Procedure: (§1) A polyacrylamide gel was made containing a 10% separating gel and a 3% stacking gel having 50 mM Tris-HCl pH 8.0 as a buffer. A sample loading solution was made containing Promega Green 1 dissolved in 50 mM Tris-HCl, pH 8.0, 20% glycerol. Samples of bovine serum albumin (BSA) and carbonic anhydrase were added to the sample buffer. The samples were loaded onto the gel and the gel was assembled into a BioRad miniprotean II gel system. An electrode buffer solution of 50 mM Tris pH 8.0 was used to fill the buffer chamber and a voltage of 150 volts was applied to the apparatus. […] Therefore, the stain need not be used only in systems containing SDS.

[3] = system: carbonic anhydrase; assay: Staining in polyacrylamide gels not containing SDS; conditions: 50 mM Tris-HCl pH 8.0
Procedure: as §1

[4] = system: bovine serum albumin (BSA); assay: Effect of solution pH on absorption in presence and absence of protein; type: physicochemical
Procedure: The effect of solution pH on the absorption of Promega Green 1 in the presence and absence of added protein was studied by dilution of Promega Green 1 solution at a ratio of 1:1000 (v/v) into various solutions containing 0 or 100 μg of protein (bovine serum albumin (BSA)) per ml of liquid. The solutions tested were highly acidic (1N HCl), moderately acidic (2% acetic acid), weakly acidic (50 mM ammonium acetate pH 4.0), weakly basic (50 mM ammonium bicarbonate pH 7.8), and strongly basic (500 mM Tris base). The absorption spectra of the solutions were measured from […] and the peak absorbances are reported below.

[5] = system: bovine serum albumin; assay: Quantitation of proteins separated by SDS-PAGE (dye extracted from excised bands); conditions: 66 Kd
Procedure: (§2) The samples used were prepared with Promega Mid-Range Molecular Weight Markers solution (Promega Corp., Madison, Wis., USA, Catalog No. V5231) (referred to hereinafter as "Promega Mid-Range [Molecular Weight] Markers or Standards") diluted into Sample Buffer. Promega Mid-Range Molecular Weight Markers is a solution, at about 0.5 mg/ml, of each of the following proteins as a molecular weight standard: phosphorylase B (apparent molecular weight: 97,400 daltons ("d")), bovine serum albumin (apparent molecular weight: 66,200 d), glutamate dehydrogenase (apparent molecular weight: 55,000 d), ovalbumin (apparent molecular weight: 42,700 d), aldolase (apparent molecular weight: 40,000 d), carbonic anhydrase (apparent molecular weight: 31,000 d), soybean trypsin inhibitor (apparent molecular weight: 21,500 d), and lysozyme (apparent molecular weight: 14,400 d). […] The samples were heated to 95° C. for 10 minutes with occasional vortex treatment in 1.5 ml Eppendorf centrifuge tubes and then centrifuged in an Eppendorf centrifuge for 20 seconds to ensure that the protein in the sample was denatured and well mixed.
(§3) A 10% SDS-PAGE gel was made as described in the Example 5. Promega Mid-Range Molecular Weight Standards were diluted into loading buffer to produce solutions containing 2.0, 1.0, 0.5, and 0.25 μg of protein per band in 5 μl of solution. Duplicate 5 μl solutions of each of these solutions were loaded into 1 of the 10 sample wells in the gel after the solutions were heated at 95° C. for 10 minutes. The gel was then electrophoresed at 160 V until the running dye just eluted from the bottom of the gel. The gel was destained, and signal from stained protein enhanced, for 90 minutes in 30% methanol, 4% acetic acid.
(§4) One of the pair of duplicate bands for the 97.4, 66.2, 55.0 and 42.7 kilodalton standards from the lanes containing 2.0, 1.0, 0.5, and 0.25 μg of protein per band were excised with a razor blade as were two control gel segments from regions of the gel not containing protein. The excised segments were placed in individual 1.5 ml Eppendorf tubes containing 2% SDS and allowed to incubate at room temperature for 72 hours. After this time, the solutions were removed from the extracted segments and acetic acid was added to 2% (v/v) final concentration. The absorption of the solutions at […] was then measured.

[6] = system: glutamate dehydrogenase; assay: as above; conditions: 55 Kd
Procedure: as §2, §3, §4

[7] = system: phosphorylase B; assay: as above; conditions: 97 kD
Procedure: as §2, §3, §4

[8] = system: Promega Mid-Range Molecular Weight Standards; assay: In-situ staining of proteins during transfer to immobilizing supports
Procedure: The use of immobilizing supports such as nitrocellulose, nylon, glass or polyvinyl difluoride has become very common in the immunochemical or sequence analysis of proteins. […] Two Whatman 3 mM sheets were soaked in transfer buffer and these components were then used to construct a transfer sandwich composed of one sheet of Whatman paper, the SDS-PAGE gel, the Immobilon sheet, and the final sheet of Whatman. The sandwich was placed in a Hoeffer transfer apparatus and oriented in the apparatus such that the Immobilon side of the sandwich was oriented toward the positive electrode. The apparatus was placed at 4° C. and 10 V were applied to the apparatus for 30 minutes then the voltage was increased to 30 V for an additional 120 minutes.
The Immobilon membrane was then soaked in 45% methanol, 5% acetic acid for 2 minutes.

[9] = moderately acidic (2% acetic acid), protein absent
[10] = moderately acidic (2% acetic acid), protein present (100 μg/ml BSA)
[11] = strongly acidic (1N HCl), protein absent
[12] = strongly acidic (1N HCl), protein present (100 μg/ml BSA)
[13] = strongly basic (500 mM Tris base), protein absent
[14] = strongly basic (500 mM Tris base), protein present (100 μg/ml BSA)
[15] = weakly acidic (50 mM ammonium acetate pH 4.0), protein absent
[16] = weakly acidic (50 mM ammonium acetate pH 4.0), protein present (100 μg/ml BSA)
[17] = weakly basic (50 mM ammonium bicarbonate pH 7.8), protein absent
[18] = weakly basic (50 mM ammonium bicarbonate pH 7.8), protein present (100 μg/ml BSA)

Absorbance at the peak near 630 nm ([1]; diluted 1:500 in 1:1 methanol:water): 1.66 | maximal absorbance relative to the other derivatives ([1]; diluted approximately 500 fold): about twice | ABS (peak absorbance) [4, 9]: 0.83 | absorption max [4, 9]: 631 nm | ABS (peak absorbance) [4, 10]: 0.98 | absorption max [4, 10]: 635 nm | ABS (peak absorbance) [4, 11]: 0.27 | absorption max [4, 11]: 649 nm | ABS (peak absorbance) [4, 12]: 0.39 | absorption max [4, 12]: 641 nm | ABS (peak absorbance) [4, 13]: 0.22 | absorption max [4, 13]: 637 nm | ABS (peak absorbance) [4, 14]: 0.128 | absorption max [4, 14]: 637 nm | ABS (peak absorbance) [4, 15]: 0.49 | absorption max [4, 15]: 636 nm | ABS (peak absorbance) [4, 16]: 0.25 | absorption max [4, 16]: 638 nm | ABS (peak absorbance) [4, 17]: 0.49 | absorption max [4, 17]: 636 nm | ABS (peak absorbance) [4, 18]: 0.26 | absorption max [4, 18]: 637 nm | Absorbance at 630 nm ([5]; 0.25 μg/band): .052 | Absorbance at 630 nm ([5]; 0.50 μg/band): .074 | Absorbance at 630 nm ([5]; 1.00 μg/band): .138 | Absorbance at 630 nm ([5]; 2.00 μg/band): .192 | Absorbance at 630 nm ([6]; 0.25 μg/band): .053 | Absorbance at 630 nm ([6]; 0.50 μg/band): .063 | Absorbance at 630 nm ([6]; 1.00 μg/band): .105 | Absorbance at 630 nm ([6]; 2.00 μg/band): .138 | Absorbance at 630 nm ([7]; 0.25 μg/band): .032 | Absorbance at 630 nm ([7]; 0.50 μg/band): .053 | Absorbance at 630 nm ([7]; 1.00 μg/band): .083 | Absorbance at 630 nm ([7]; 2.00 μg/band): .128
SMILES: CCCCCCCC(=O)N(c1ccc(OCC)cc1)c1ccc(C(=C2C=CC(=[N+](CC)Cc3cccc(S(=O)(=O)[O-])c3)C=C2)c2ccc(N(CC)Cc3cccc(S(=O)(=O)O)c3)cc2)cc1 [Promega Green 1]
staining of BSA in gel without SDS [2]: seen to migrate through the gel as stained bands | staining of carbonic anhydrase in gel without SDS [3]: seen to migrate through the gel as stained bands | visibility of bands on membrane after enhancement ([8]; 45% methanol, 5% acetic acid, 2 minutes): the protein band at all concentrations became easily visible | lowest protein per band visible on Immobilon membrane after transfer ([8]; before enhancement): 1.0 µg
